Experimental data taken from PubChem BioAssay (NCI).
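Assay format: 96-well plates, 48-hour exposure. TGI is the concentration that stops growth completely.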

Experiments:
Experiment in all cases: inhibition of tumour cell growth, NCI panel, 48 h
[1] = system: 786-0 renal
[2] = system: A498 renal
[3] = system: A549 NSCLC
[4] = system: ACHN renal
[5] = system: BT-549 breast
[6] = system: CAKI-1 renal
[7] = system: CCRF-CEM leukemia
[8] = system: COLO 205 colon
[9] = system: DU-145 prostate
[10] = system: EKVX NSCLC
[11] = system: HCT-116 colon
[12] = system: HCT-15 colon
[13] = system: HOP-62 NSCLC
[14] = system: HS 578T breast
[15] = system: HT29 colon
[16] = system: IGROV1 ovarian
[17] = system: KM12 colon
[18] = system: LOX IMVI melanoma
[19] = system: M14 melanoma
[20] = system: MALME-3M melanoma
[21] = system: MCF7 breast
[22] = system: MDA-MB-231 breast
[23] = system: MDA-MB-435
[24] = system: MDA-N
[25] = system: MOLT-4 leukemia
[26] = system: NCI-H226 lung
[27] = system: NCI-H460 lung
[28] = system: NCI-H522 lung
[29] = system: NCI/ADR-RES ovarian
[30] = system: OVCAR-3 ovarian
[31] = system: OVCAR-4 ovarian
[32] = system: OVCAR-5 ovarian
[33] = system: OVCAR-8 ovarian
[34] = system: PC-3 prostate
[35] = system: RPMI-8226 leukemia
[36] = system: RXF 393 renal
[37] = system: SF-268 CNS
[38] = system: SF-295 CNS
[39] = system: SF-539 CNS
[40] = system: SK-MEL-2 melanoma
[41] = system: SK-MEL-28 melanoma
[42] = system: SK-MEL-5 melanoma
[43] = system: SK-OV-3 ovarian
[44] = system: SN12C renal
[45] = system: SNB-19 CNS
[46] = system: SNB-75 CNS
[47] = system: SR leukemia
[48] = system: SW-620 colon
[49] = system: T-47D breast
[50] = system: TK-10 renal
[51] = system: U251 CNS
[52] = system: UACC-257 melanoma
[53] = system: UACC-62 melanoma
[54] = system: UO-31 renal
[55] = system: HCC-2998 colon
[56] = system: HL-60(TB) leukemia
[57] = system: HOP-92 NSCLC
[58] = system: K-562 leukemia
[59] = system: NCI-H23 lung

Work on `NC(=O)C1=NNc2ccccc2C(=O)N1c1ccccc1` yielded a TGI [1] greater than 100 µM, a TGI [2] greater than 100 µM and a TGI [3] greater than 100 µM. For the same compound, the TGI [4] was greater than 100 µM, the TGI [5] was greater than 100 µM and the TGI [6] was greater than 100 µM. The TGI [7] was greater than 100 µM, the TGI [8] was greater than 100 µM and the TGI [9] was greater than 100 µM. The TGI [10] was greater than 100 µM, the TGI [11] was greater than 100 µM and the TGI [12] was greater than 100 µM. It also gave a TGI [13] greater than 100 µM, a TGI [14] greater than 100 µM and a TGI [15] greater than 100 µM. The TGI [16] was greater than 100 µM, the TGI [17] was greater than 100 µM and the TGI [18] was greater than 100 µM. It also gave a TGI [19] greater than 100 µM, a TGI [20] greater than 100 µM and a TGI [21] greater than 100 µM. The TGI [22] was greater than 100 µM, the TGI [23] was greater than 100 µM and the TGI [24] was greater than 100 µM. The TGI [25] was greater than 100 µM, the TGI [26] was greater than 100 µM and the TGI [27] was greater than 100 µM. The TGI [28] was greater than 100 µM, the TGI [29] was greater than 100 µM and the TGI [30] was greater than 100 µM. It also gave a TGI [31] greater than 100 µM, a TGI [32] greater than 100 µM and a TGI [33] greater than 100 µM. It also gave a TGI [34] greater than 100 µM, a TGI [35] greater than 100 µM and a TGI [36] greater than 100 µM. The TGI [37] was greater than 100 µM, the TGI [38] was greater than 100 µM and the TGI [39] was greater than 100 µM. For the same compound, the TGI [40] was greater than 100 µM, the TGI [41] was greater than 100 µM and the TGI [42] was greater than 100 µM. For the same compound, the TGI [43] was greater than 100 µM, the TGI [44] was greater than 100 µM and the TGI [45] was greater than 100 µM. It also gave a TGI [46] greater than 100 µM, a TGI [47] greater than 100 µM and a TGI [48] greater than 100 µM. It also gave a TGI [49] greater than 100 µM, a TGI [50] greater than 100 µM and a TGI [51] greater than 100 µM. For the same compound, the TGI [52] was greater than 100 µM, the TGI [53] was greater than 100 µM and the TGI [54] was greater than 100 µM.

With `Cc1[nH]c(=O)nc(N/N=C/c2ccc(Cl)cc2)c1C(=O)NC(C)(CO)CO` the TGI [2] was greater than 100 µM, the TGI [4] was greater than 100 µM and the TGI [5] was greater than 100 µM. The TGI [6] was greater than 100 µM, the TGI [7] was greater than 100 µM and the TGI [8] was greater than 100 µM. For the same compound, the TGI [9] was greater than 100 µM, the TGI [10] was greater than 100 µM and the TGI [55] was greater than 100 µM. For the same compound, the TGI [11] was greater than 100 µM, the TGI [12] was greater than 100 µM and the TGI [56] was greater than 100 µM. The TGI [13] was greater than 100 µM, the TGI [57] was greater than 100 µM and the TGI [14] was greater than 100 µM. It also gave a TGI [15] greater than 100 µM, a TGI [16] greater than 100 µM and a TGI [58] greater than 100 µM. The TGI [17] was greater than 100 µM, the TGI [18] was greater than 100 µM and the TGI [19] was greater than 100 µM. The TGI [20] was greater than 100 µM, the TGI [21] was greater than 100 µM and the TGI [23] was greater than 100 µM. It also gave a TGI [24] greater than 100 µM, a TGI [25] greater than 100 µM and a TGI [26] greater than 100 µM. It also gave a TGI [59] greater than 100 µM, a TGI [27] greater than 100 µM and a TGI [29] greater than 100 µM. The TGI [30] was greater than 100 µM, the TGI [31] was greater than 100 µM and the TGI [32] was greater than 100 µM. For the same compound, the TGI [33] was greater than 100 µM, the TGI [34] was greater than 100 µM and the TGI [35] was greater than 100 µM. The TGI [36] was greater than 100 µM, the TGI [37] was greater than 100 µM and the TGI [38] was greater than 100 µM. For the same compound, the TGI [40] was greater than 100 µM, the TGI [41] was greater than 100 µM and the TGI [42] was greater than 100 µM. For the same compound, the TGI [43] was greater than 100 µM, the TGI [44] was greater than 100 µM and the TGI [45] was greater than 100 µM. It also gave a TGI [46] greater than 100 µM, a TGI [47] greater than 100 µM and a TGI [48] greater than 100 µM. The TGI [49] was greater than 100 µM, the TGI [50] was greater than 100 µM and the TGI [51] was greater than 100 µM. For the same compound, the TGI [52] was greater than 100 µM, the TGI [53] was greater than 100 µM and the TGI [54] was greater than 100 µM.

In the case of `COC(=O)C(O)P(=O)(OC)OC` (stereo unspecified), the TGI [1] is reported as greater than 100 µM, the TGI [2] is reported as greater than 100 µM and the TGI [3] is reported as greater than 100 µM. For the same compound, the TGI [4] was greater than 100 µM, the TGI [5] was greater than 100 µM and the TGI [6] was greater than 100 µM. For the same compound, the TGI [8] was greater than 100 µM, the TGI [9] was greater than 100 µM and the TGI [10] was greater than 100 µM. The TGI [11] was greater than 100 µM, the TGI [12] was greater than 100 µM and the TGI [56] was greater than 100 µM. For the same compound, the TGI [13] was greater than 100 µM, the TGI [57] was greater than 100 µM and the TGI [14] was greater than 100 µM. It also gave a TGI [15] greater than 100 µM, a TGI [16] greater than 100 µM and a TGI [58] greater than 100 µM. It also gave a TGI [17] greater than 100 µM, a TGI [18] greater than 100 µM and a TGI [19] greater than 100 µM. The TGI [20] was greater than 100 µM, the TGI [21] was greater than 100 µM and the TGI [22] was greater than 100 µM. For the same compound, the TGI [23] was greater than 100 µM, the TGI [24] was greater than 100 µM and the TGI [25] was greater than 100 µM. It also gave a TGI [26] greater than 100 µM, a TGI [59] greater than 100 µM and a TGI [28] greater than 100 µM. It also gave a TGI [29] greater than 100 µM, a TGI [30] greater than 100 µM and a TGI [31] greater than 100 µM. For the same compound, the TGI [32] was greater than 100 µM, the TGI [33] was greater than 100 µM and the TGI [34] was greater than 100 µM. It also gave a TGI [35] greater than 100 µM, a TGI [36] greater than 100 µM and a TGI [37] greater than 100 µM. It also gave a TGI [38] greater than 100 µM, a TGI [40] greater than 100 µM and a TGI [41] greater than 100 µM. It also gave a TGI [42] greater than 100 µM, a TGI [43] greater than 100 µM and a TGI [44] greater than 100 µM. For the same compound, the TGI [45] was greater than 100 µM, the TGI [47] was greater than 100 µM and the TGI [48] was greater than 100 µM. It also gave a TGI [49] greater than 100 µM, a TGI [51] greater than 100 µM and a TGI [52] greater than 100 µM. For the same compound, the TGI [53] was greater than 100 µM and the TGI [54] was greater than 100 µM.

`COc1ccc(C2SCC(=O)N2c2ccc(-n3c(-c4ccccc4)nc4ccccc4c3=O)cc2)cc1OC` (stereo unspecified) gave a TGI [1] greater than 100 µM, a TGI [2] greater than 100 µM and a TGI [3] greater than 100 µM. It also gave a TGI [4] greater than 100 µM, a TGI [5] greater than 100 µM and a TGI [6] greater than 100 µM. The TGI [7] was greater than 100 µM, the TGI [8] was greater than 100 µM and the TGI [10] was greater than 100 µM. It also gave a TGI [55] greater than 100 µM, a TGI [11] greater than 100 µM and a TGI [12] greater than 100 µM. It also gave a TGI [56] greater than 100 µM, a TGI [13] greater than 100 µM and a TGI [14] greater than 100 µM. The TGI [15] was greater than 100 µM, the TGI [16] was greater than 100 µM and the TGI [58] was greater than 100 µM. It also gave a TGI [17] greater than 100 µM, a TGI [18] greater than 100 µM and a TGI [19] greater than 100 µM. It also gave a TGI [20] greater than 100 µM, a TGI [21] greater than 100 µM and a TGI [22] greater than 100 µM. For the same compound, the TGI [23] was greater than 100 µM, the TGI [24] was greater than 100 µM and the TGI [25] was greater than 100 µM. The TGI [26] was greater than 100 µM, the TGI [59] was greater than 100 µM and the TGI [27] was greater than 100 µM. For the same compound, the TGI [28] was greater than 100 µM, the TGI [29] was greater than 100 µM and the TGI [30] was greater than 100 µM. For the same compound, the TGI [32] was greater than 100 µM, the TGI [33] was greater than 100 µM and the TGI [34] was greater than 100 µM. The TGI [35] was greater than 100 µM, the TGI [37] was greater than 100 µM and the TGI [38] was greater than 100 µM. It also gave a TGI [39] greater than 100 µM, a TGI [40] greater than 100 µM and a TGI [41] greater than 100 µM. For the same compound, the TGI [42] was greater than 100 µM, the TGI [43] was greater than 100 µM and the TGI [44] was greater than 100 µM. It also gave a TGI [45] greater than 100 µM, a TGI [46] of 51.7 µM and a TGI [47] greater than 100 µM. It also gave a TGI [48] greater than 100 µM, a TGI [49] greater than 100 µM and a TGI [50] greater than 100 µM. The TGI [51] was greater than 100 µM, the TGI [52] was greater than 100 µM and the TGI [53] was greater than 100 µM. The TGI [54] was greater than 100 µM.
